Tested on: T1, Exonuclease III (Exo III)
T1 construct: gene xthA; commercial enzyme from New England BioLabs
Test: hairpin DNA digestion, coupled to Cas12a collateral cleavage of fluorescent reporter
Format: biochemical
Details: acts by metal chelation, not a specific binder; Exo III 5 U/mL, 10 min preincubation, hairpin probe substrate, magnesium acetate buffer pH 7.9, 37 °C; EDTA carried into the Cas12a read-out step

IC50: 6.34 mM
SMILES: O=C(O)CN(CCN(CC(=O)O)CC(=O)O)CC(=O)O [EDTA]
